According to ChEMBL document CHEMBL1153976, “Synthesis and cytotoxicity of 2-cyano-28-hydroxy-lup-1-en-3-ones” (Bioorg Med Chem Lett, 2009):
pIC50: −log10 of the molar value.

How the values were obtained:
A-375 = test: Antiproliferative activity against human A375 cells after 72 hrs by MTS assay; assay type: functional, cell-based; settings: A-375, 72 h
[1] = Antiproliferative activity against human LN229 cells after 72 hrs by MTS assay; assay type: functional, cell-based; settings: LN-229, 72 h
HT-29 = test: Antiproliferative activity against human HT-29 cells after 72 hrs by MTS assay; assay type: functional, cell-based; settings: HT-29, 72 h
Daoy = test: Antiproliferative activity against human DaOY cells after 72 hrs by MTS assay; assay type: cell-based
SK-MEL-2 [2] = test: Antiproliferative activity against human SK-MEL-2 cells after 72 hrs by MTS assay; assay type: functional, cell-based; settings: SK-MEL-2, 72 h
MCF7 = test: Antiproliferative activity against human MCF7 cells after 72 hrs by MTS assay; assay type: functional, cell-based; settings: MCF7, 72 h
OVCAR-3 = test: Antiproliferative activity against human OVCAR-3 cells after 120 hrs by MTS assay; assay type: functional, cell-based; settings: OVCAR-3, 120 h
SK-MEL-2 [3] = test: Induction of apoptosis in human SK-MEL-2 cells assessed as increase in caspase activation at 50 uM after 8 hrs by homogenous assay relative to control; assay type: functional
SK-MEL-2 [4] = test: Induction of apoptosis in human SK-MEL-2 cells assessed as necrotic cells at 50 uM after 8 hrs by annexin V assay; assay type: functional
SK-MEL-2 [5] = test: Induction of apoptosis in human SK-MEL-2 cells assessed as necrotic cells at 50 uM after 8 hrs by annexin V assay in presence of z-VAD; assay type: functional
SK-MEL-2 [6] = test: Induction of apoptosis in human SK-MEL-2 cells assessed as increase in caspase activation at 5 uM after 8 hrs by homogenous assay relative to control; assay type: functional
SK-MEL-2 [7] = test: Induction of apoptosis in human SK-MEL-2 cells assessed as apoptotic cells at 50 uM after 8 hrs by annexin V assay in presence of z-VAD; assay type: functional
SK-MEL-2 [8] = test: Induction of apoptosis in human SK-MEL-2 cells assessed as apoptotic cells at 50 uM after 8 hrs by annexin V assay; assay type: functional

Row | SMILES | pIC50 (A-375) | pIC50 [1] | pIC50 (HT-29) | pIC50 (Daoy) | pIC50 (SK-MEL-2 [2]) | pIC50 (MCF7) | pIC50 (OVCAR-3) | fold change (FC) (SK-MEL-2 [3]) | Activity (SK-MEL-2 [4]) | Activity (SK-MEL-2 [5]) | fold change (FC) (SK-MEL-2 [6]) | Activity (SK-MEL-2 [7]) | Activity (SK-MEL-2 [8]) | Activity (SK-MEL-2 [6])
1 | C=C(C)[C@@H]1CC[C@]2(COC3CCCCO3)CC[C@]3(C)[C@H](CC[C@@H]4[C@@]5(C)CC(C#N)C(=O)C(C)(C)[C@@H]5CC[C@]43C)[C@@H]12 (some centres undefined) | 4.42 | < 4.12 | < 4.12 | 4.54 | 4.72 | 4.60 | < 4.12 | – | – | – | – | – | – | –
2 | C=C(C)[C@@H]1CC[C@]2(COC3CCCCO3)CC[C@]3(C)[C@H](CC[C@@H]4[C@@]5(C)C=C(C#N)C(=O)C(C)(C)[C@@H]5CC[C@]43C)[C@@H]12 (some centres undefined) | 4.92 | 4.68 | < 4.12 | 4.85 | 4.64 | < 4.12 | < 4.12 | – | – | – | – | – | – | –
3 | CC(C)[C@@H]1CC[C@]2(C(=O)O)CC[C@]3(C)[C@H](CC[C@@H]4[C@@]5(C)C=C(C#N)C(=O)C(C)(C)[C@@H]5CC[C@]43C)[C@@H]12 | 4.80 | 4.52 | 4.74 | 4.15 | 4.23 | 4.23 | 4.62 | – | – | – | – | – | – | –
4 | C=C(C)[C@@H]1CC[C@]2(CO)CC[C@]3(C)[C@H](CC[C@@H]4[C@@]5(C)C=C(C#N)C(=O)C(C)(C)[C@@H]5CC[C@]43C)[C@@H]12 | 5.22 | 5.22 | 5.10 | 5.10 | 5.15 | 4.60 | 5.15 | 8 | 3% | 4% | 2 | 7% | 24% | –
5 | C=C(C)[C@@H]1CC[C@]2(CO)CC[C@]3(C)[C@H](CC[C@@H]4[C@@]5(C)Cc6cnoc6C(C)(C)[C@@H]5CC[C@]43C)[C@@H]12 | – | < 4.12 | 5.00 | 5.10 | 5.10 | 4.60 | 4.22 | – | – | – | – | – | – | –
6 | C=C(C)[C@@H]1CC[C@]2(C=O)CC[C@]3(C)[C@H](CC[C@@H]4[C@@]5(C)C=C(C#N)C(=O)C(C)(C)[C@@H]5CC[C@]43C)[C@@H]12 | 5.15 | < 4.12 | 4.31 | 4.89 | 4.40 | < 4.12 | < 4.12 | – | – | – | – | – | – | –
7 | C=C(C)[C@@H]1CC[C@]2(CO)CC[C@]3(C)[C@H](CC[C@@H]4[C@@]5(C)CC(C#N)C(=O)C(C)(C)[C@@H]5CC[C@]43C)[C@@H]12 (some centres undefined) | < 4.12 | < 4.12 | 4.14 | 4.36 | 4.38 | 4.17 | < 4.12 | – | – | – | – | – | – | –
8 | CC(C)[C@@H]1CC[C@]2(COC3CCCCO3)CC[C@]3(C)[C@H](CC[C@@H]4[C@@]5(C)CC(C#N)C(=O)C(C)(C)[C@@H]5CC[C@]43C)[C@@H]12 (some centres undefined) | 4.32 | 4.35 | < 4.12 | 4.68 | 4.60 | < 4.12 | – | – | – | – | – | – | – | –
9 | CC(C)[C@@H]1CC[C@]2(CO)CC[C@]3(C)[C@H](CC[C@@H]4[C@@]5(C)C=C(C#N)C(=O)C(C)(C)[C@@H]5CC[C@]43C)[C@@H]12 | 5.40 | – | 5.15 | 5.05 | 5.22 | < 4.12 | 5.10 | – | – | – | – | – | – | –
10 | CC(C)[C@@H]1CC[C@]2(CO)CC[C@]3(C)[C@H](CC[C@@H]4[C@@]5(C)Cc6cnoc6C(C)(C)[C@@H]5CC[C@]43C)[C@@H]12 | 5.00 | < 4.12 | 4.12 | 5.15 | 5.10 | < 4.12 | 4.12 | – | – | – | – | – | – | –
11 | C=C(C)[C@@H]1CC[C@]2(C(=O)O)CC[C@]3(C)[C@H](CC[C@@H]4[C@@]5(C)C=C(C#N)C(=O)C(C)(C)[C@@H]5CC[C@]43C)[C@@H]12 | < 4.12 | 4.74 | 4.42 | < 4.12 | < 4.12 | < 4.12 | < 4.12 | – | – | – | – | – | – | –
12 | C=C(C)[C@@H]1CC[C@]2(C(=O)O)CC[C@]3(C)[C@H](CC[C@@H]4[C@@]5(C)CC[C@H](O)C(C)(C)[C@@H]5CC[C@]43C)[C@@H]12 [BETULINIC ACID] | 4.29 | 4.21 | 4.43 | 4.51 | 4.48 | 4.30 | 4.23 | 2.6 | – | – | – | – | – | 70%
